Test results published in patent publication US20090130101A1, “ANTI-CANCER THERAPY WITH AN EXTRACT OF SCUTELLARIA BARBATA” (BIONOVO, INC., priority 2007, published 2009).

Key:
ROS = ROS generation, CM-H2DCFDA conversion; format: cell-based; settings: incubation of cells with the ROS scavenger prior to addition of BZL101, FIG. 10
[1] = tested on: subcutaneous cancer xenografts; format: in vivo, mice; settings: BZL101 0.5 ml oral gavage every third day; cyclophosphamide 25 mg/Kg/day in drinking water; FIG. 6
Method: As in Example 1, above, 10^5 cells were administered to each animal subcutaneously on Day 0. The animals were divided into four groups. The control group received only normal drinking water. The cyclophosphamide only group received 25 mg/Kg/day of cyclophosphamide in their drinking water.

Row | Compound | effect on BZL101-induced ROS generation (ROS) | tumor growth [1]
1 | CC(=O)N[C@@H](CS)C(=O)O [N-acetyl-cysteine] | prevented most of the increase in ROS generation | 
2 | O=P1(N(CCCl)CCCl)NCCCO1 (centres unmarked) [cyclophosphamide] |  | inhibited tumor growth as compared to the control
